Assay results published in patent publication US10329320B2, “Neuroactive steroids, compositions, and uses thereof” (Sage Therapeutics, Inc., priority 2015, dated 2019).

Molecular target: GABAA receptor ([35S]-TBPS binding, rat brain cortical membranes)
Assay: Steroid inhibition of [35S]-TBPS binding (radioligand displacement)
Conditions: 3 nM [35S]-TBPS, in the presence of 5 μM GABA
Experimental: TBPS binding assays using rat brain cortical membranes in the presence of 5 μM GABA has been described (Gee et al, J. Pharmacol. Exp. Ther. 1987, 241, 346-353; Hawkinson et al, Mol. Pharmacol. 1994, 46, 977-985; Lewin, A. H et al., Mol. Pharmacol. 1989, 35, 189-194).
Briefly, cortices are rapidly removed following decapitation of carbon dioxide-anesthetized Sprague-Dawley rats (200-250 g). The cortices are homogenized in 10 volumes of ice-cold 0.32 M sucrose using a glass/teflon homogenizer and centrifuged at 1500×g for 10 min at 4° C. The resultant supernatants are centrifuged at 10,000×g for 20 min at 4° C. to obtain the P2 pellets. The P2 pellets are resuspended in 200 mM NaCl/50 mM Na—K phosphate pH 7.4 buffer and centrifuged at 10,000×g for 10 min at 4° C. This washing procedure is repeated twice and the pellets are resuspended in 10 volumes of buffer. Aliquots (100 μL) of the membrane suspensions are incubated with 3 nM [^35S]-TBPS and 5 μL aliquots of test drug dissolved in dimethyl sulfoxide (DMSO) (final 0.5%) in the presence of 5 μM GABA. The incubation is brought to a final volume of 1.0 mL with buffer. Nonspecific binding is determined in the presence of 2 μM unlabeled TBPS and ranged from 15 to 25%. Following a 90 min incubation at room temp, the assays are terminated by filtration through glass fiber filters (Schleicher and Schuell No. 32) using a cell harvester (Brandel) and rinsed three times with ice-cold buffer. Filter bound radioactivity is measured by liquid scintillation spectrometry. Non-linear curve fitting of the overall data for each drug averaged for each concentration is done using Prism (GraphPad). […] The concentration of test compound producing 50% inhibition (IC50) of specific binding and the maximal extent of inhibition (Imax) are determined for the individual experiments with the same model used for the overall data and then the means ±SEM.s of the individual experiments are calculated.
Various compounds are or can be screened to determine their potential as modulators of [^35S]-TBPS binding in vitro. These assays are or can be performed in accordance with the above discussed procedures.

SMILES | IC50
COC[C@]12CC[C@@](C)(O)C[C@@H]1CC[C@H]1[C@@H]3CC[C@H](C(=O)Cn4cc(OC)cn4)[C@@]3(C)CC[C@@H]12 [Compound 37] | 100 to 500 nM
COC[C@]12CC[C@@](C)(O)C[C@@H]1CC[C@H]1[C@@H]3CC[C@H](C(=O)Cn4ncc(CO)n4)[C@@]3(C)CC[C@@H]12 [Compound 85] | > 500 nM
COC[C@]12CC[C@@](C)(O)C[C@H]1CC[C@H]1[C@@H]3CC[C@H](C(=O)Cn4cc([S+](C)[O-])cn4)[C@@]3(C)CC[C@@H]12 (stereo partly drawn) [Compound 35] | > 500 nM
COC[C@]12CC[C@@](C)(O)C[C@H]1CC[C@H]1[C@@H]3CC[C@H](C(=O)Cn4ncc5cc(F)ccc54)[C@@]3(C)CC[C@@H]12 [Compound 16] | < 10 nM
CC(C)OC[C@]12CC[C@@](C)(O)C[C@H]1CC[C@H]1[C@@H]3CC[C@H](C(=O)Cn4ncnn4)[C@@]3(C)CC[C@@H]12 [Compound 72] | < 10 nM
COC[C@]12CC[C@@](C)(O)C[C@@H]1CC[C@H]1[C@@H]3CC[C@H](C(=O)Cn4ncc5cccnc54)[C@@]3(C)CC[C@@H]12 [Compound 47] | 10 to 50 nM
